Columns and labels:
[1] = tested on: macrophages obtained from the mice peritoneum; assay: Test 2: Production of macrophages in mice (peritoneal macrophage count); type: in vivo, BALB/C mice; settings: 1 ml subcutaneously every 3 days; for macrophage counts: after 30 days (10 sessions), first group, distilled water 1.0; for average macrophage counts: at 60 days (20 sessions), second group, distilled water 1.1
[2] = tested on: macrophages removed from the second Group mice; assay: Test 2: protein synthesis (35S-met.) and DNA synthesis (3H-Thy.) in macrophages removed from treated mice and cultured in vitro for 24 hours; type: in vivo, BALB/C mice; settings: macrophages of second group mice (60 days) cultured 24 hours, water-treated mice = 100%; for relative (percentage) values of DNA synthesis: ³H-Thy.; for relative (percentage) values of protein synthesis: ³⁵S-met.
Procedure: 15 BALB/C mice (18-20 g) were divided into two groups of 5 and 10 mice. The first group was administered 1 ml of the aqueous solutions described below every 3 days for 30 days (10 sessions), subcutaneously.
The solutions applied were as follows: a) distilled water, b) sodium thiosulphate (25 g/lit), c) formic acid (0.3 g/lit), d) above described organogermanium compound solution, and e) above described organogermanium compound plus formic acid (0.3 g/lit).
Finally, the macrophages removed from the second Group mice were cultured "in vitro" for 24 hours, protein synthesis (using ³⁵S-met. as indicator) and DNA synthesis (using ³H-Thy.) determinations being made therewith.

[3] = as indicated in Miyao K. et al., DRUGS OF FUTURE 13, no. 5, 1988; cited from earlier work

| Compound | macrophage counts [1] | average macrophage counts [1] | relative (percentage) values of DNA synthesis [2] | relative (percentage) values of protein synthesis [2] | solubility in water [3] |
| --- | --- | --- | --- | --- | --- |
| O=CO [formic acid] | 1.2 millions of microphages per millilitre | 1.2 millions of macrophages per millilitre | 140% | 115% | – |
| O=C(O)C[CH2][Ge](=[O])[O][Ge](=[O])[CH2]CC(=O)O [Ge-132, carboxyethylgermanium sesquioxide] | – | – | – | – | soluble in water |
| sodium thiosulphate | 0.9 millions of microphages per millilitre | 1.0 millions of macrophages per millilitre | 102% | 98% | – |

— patent publication EP0491103B1, “Compositions for therapeutic use comprising organogermanium derivatives” (Larranaga Mendizabal, Eusebio, priority 1990, dated 1992)
